Experimental data reported in PubChem BioAssay (NCI).
Several values for one entry are separate records, joined by “and”; a condition that tells them apart may be missing. Equal entries are not always repeated.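 A five-concentration, 48-hour dose response in 96-well plates underlies each endpoint, interpolated linearly between surrounding concentrations. At the GI50, growth is halved. TGI: total growth inhibition.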

Assays:
Test in all cases: NCI-60 cell line screen, 48 h
[1] = tested on: SNB-75 CNS
[2] = tested on: OVCAR-4 ovarian
[3] = tested on: A549 NSCLC
[4] = tested on: NCI-H23 lung
[5] = tested on: TK-10 renal
[6] = tested on: HOP-62 NSCLC
[7] = tested on: MOLT-4 leukemia
[8] = tested on: HOP-92 NSCLC
[9] = tested on: LOX IMVI melanoma
[10] = tested on: OVCAR-3 ovarian
[11] = tested on: KM12 colon
[12] = tested on: SN12C renal
[13] = tested on: SNB-19 CNS
[14] = tested on: RXF 393 renal
[15] = tested on: SK-MEL-2 melanoma
[16] = tested on: SF-268 CNS
[17] = tested on: HCT-116 colon
[18] = tested on: NCI-H460 lung
[19] = tested on: K-562 leukemia
[20] = tested on: NCI-H226 lung
[21] = tested on: HCT-15 colon
[22] = tested on: LXFL 529 NSCLC
[23] = tested on: SW-620 colon
[24] = tested on: HOP-18 NSCLC
[25] = tested on: KM20L2 colon
[26] = tested on: SK-MEL-5 melanoma
[27] = tested on: M19-MEL melanoma
[28] = tested on: UO-31 renal
[29] = tested on: DMS 273 small cell lung
[30] = tested on: COLO 205 colon
[31] = tested on: HCC-2998 colon
[32] = tested on: ACHN renal
[33] = tested on: DMS 114 small cell lung
[34] = tested on: OVCAR-5 ovarian
[35] = tested on: SK-MEL-28 melanoma
[36] = tested on: M14 melanoma
[37] = tested on: XF 498 CNS
[38] = tested on: NCI-H522 lung
[39] = tested on: HL-60(TB) leukemia
[40] = tested on: SK-OV-3 ovarian
[41] = tested on: EKVX NSCLC
[42] = tested on: MALME-3M melanoma
[43] = tested on: 786-0 renal
[44] = tested on: SF-295 CNS
[45] = tested on: CCRF-CEM leukemia
[46] = tested on: U251 CNS
[47] = tested on: A498 renal
[48] = tested on: IGROV1 ovarian
[49] = tested on: HT29 colon
[50] = tested on: SR leukemia
[51] = tested on: UACC-257 melanoma
[52] = tested on: OVCAR-8 ovarian
[53] = tested on: UACC-62 melanoma
[54] = tested on: SF-539 CNS
[55] = tested on: DLD-1 colon
[56] = tested on: RPMI-8226 leukemia
[57] = tested on: CAKI-1 renal
[58] = tested on: SNB-78 CNS

SMILES: Nc1ncnc2c(C3OC(CO)C(O)C3O)scc12 (stereo not drawn)
- TGI [1]: 5.5 µM
- TGI [2]: 2.24 µM and 0.746 µM
- TGI [3]: 1.46 µM and 5.46 µM
- GI50 [4]: 0.0585 µM
- TGI [4]: 1.33 µM and 1.39 µM
- GI50 [5]: 0.0186 µM
- TGI [5]: 4.01 µM and 4.24 µM
- GI50 [6]: 0.12 µM
- TGI [6]: 2.02 µM and 3.02 µM
- GI50 [7]: 0.0989 µM
- TGI [7]: 1.99 µM and 1.9 µM
- TGI [8]: 0.529 µM
- GI50 [9]: 0.0233 µM
- TGI [9]: 1.49 µM and 2 µM
- TGI [10]: 0.0287 µM
- TGI [11]: 0.026 µM
- GI50 [12]: 0.105 µM
- TGI [12]: 4.93 µM and 4.07 µM
- GI50 [13]: 4.92 µM
- TGI [13]: 65.6 µM
- TGI [14]: 1.39 µM
- GI50 [15]: 0.228 µM
- TGI [15]: 2.14 µM
- GI50 [16]: 1.41 µM
- TGI [16]: 33.3 µM
- TGI [17]: 1.12 µM and 2.72 µM
- TGI [18]: 0.554 µM and 1.12 µM
- TGI [19]: 0.03 µM
- TGI [20]: 0.731 µM
- TGI [21]: 0.584 µM and 0.14 µM
- GI50 [22]: 0.365 µM
- TGI [22]: 12.9 µM
- TGI [23]: > 100 µM
- TGI [24]: 4.54 µM
- TGI [25]: 1.07 µM and 1.64 µM
- GI50 [26]: 0.0781 µM
- TGI [26]: 4.68 µM and 2.64 µM
- GI50 [27]: 0.147 µM
- TGI [27]: 3.4 µM and 2.31 µM
- TGI [28]: 4.56 µM
- TGI [29]: 0.151 µM and 0.11 µM
- TGI [30]: 1.15 µM and 1.23 µM
- TGI [31]: 0.121 µM and 0.277 µM
- GI50 [32]: 0.127 µM
- TGI [32]: 1.9 µM and 3.66 µM
- TGI [33]: 0.548 µM and 0.31 µM
- TGI [34]: 0.787 µM and 0.139 µM
- GI50 [35]: 1.2 µM
- TGI [35]: 2.64 µM and 7.04 µM
- TGI [36]: 0.217 µM and 0.277 µM
- TGI [37]: 0.353 µM and 0.581 µM
- TGI [38]: 0.242 µM and 0.0939 µM
- TGI [39]: 0.00946 µM
- TGI [40]: 0.0357 µM and 0.075 µM
- GI50 [41]: 0.269 µM
- TGI [41]: 4.29 µM
- GI50 [42]: 4.35 µM
- TGI [42]: 24.4 µM
- GI50 [43]: 0.168 µM
- TGI [43]: 4.5 µM and 3.08 µM
- GI50 [44]: 0.591 µM
- TGI [44]: 2.45 µM and 3.66 µM
- TGI [45]: 4.88 µM and 1.56 µM
- GI50 [46]: 2.45 µM
- TGI [46]: > 100 µM
- GI50 [47]: 0.0518 µM
- TGI [47]: 0.324 µM and 2.03 µM
- GI50 [48]: 0.0179 µM
- TGI [48]: 3.3 µM
- TGI [49]: 1.12 µM
- GI50 [50]: 0.0621 µM
- TGI [50]: 2.49 µM
- GI50 [51]: 1.11 µM

SMILES: NCCCC1NC(=O)/C(=C(O)/C=C/C2CCC[C@@H]2CC2SCCS2)C1=O (stereo partly drawn)
- TGI [52]: > 100 µM
- TGI [53]: > 100 µM
- TGI [1]: > 100 µM
- TGI [2]: > 100 µM
- TGI [3]: > 100 µM
- TGI [4]: > 100 µM
- TGI [5]: > 100 µM
- TGI [6]: > 100 µM
- TGI [7]: > 100 µM
- TGI [8]: 99.8 µM
- TGI [9]: > 100 µM
- TGI [10]: > 100 µM
- TGI [11]: > 100 µM
- TGI [12]: > 100 µM
- TGI [13]: > 100 µM
- TGI [14]: > 100 µM
- TGI [15]: > 100 µM
- TGI [16]: > 100 µM
- TGI [17]: > 100 µM
- TGI [18]: > 100 µM
- TGI [19]: > 100 µM
- TGI [20]: > 100 µM
- TGI [22]: > 100 µM
- TGI [23]: > 100 µM
- TGI [24]: > 100 µM
- TGI [25]: > 100 µM
- TGI [26]: > 100 µM
- TGI [27]: > 100 µM
- TGI [28]: > 100 µM
- TGI [29]: > 100 µM
- TGI [30]: > 100 µM
- TGI [31]: > 100 µM
- TGI [32]: > 100 µM
- TGI [33]: > 100 µM
- TGI [54]: > 100 µM
- TGI [34]: > 100 µM
- TGI [35]: > 100 µM
- TGI [36]: > 100 µM
- TGI [38]: 98.4 µM
- TGI [39]: 64.3 µM
- TGI [40]: > 100 µM
- TGI [41]: > 100 µM
- TGI [42]: > 100 µM
- TGI [43]: > 100 µM
- TGI [44]: > 100 µM
- TGI [45]: > 100 µM
- TGI [46]: > 100 µM
- TGI [47]: > 100 µM
- TGI [48]: > 100 µM
- TGI [55]: > 100 µM
- TGI [56]: > 100 µM
- TGI [49]: > 100 µM
- TGI [50]: > 100 µM
- TGI [51]: > 100 µM

SMILES: Cc1cc(=O)oc2c1cc(OCC(=O)OCCN1CCCCC1)c1occ(C)c12
- TGI [52]: > 100 µM
- TGI [57]: > 100 µM
- TGI [53]: > 100 µM
- TGI [1]: > 100 µM
- TGI [2]: > 100 µM
- TGI [3]: > 100 µM
- TGI [4]: > 100 µM
- TGI [5]: > 100 µM
- TGI [7]: > 100 µM
- TGI [8]: > 100 µM
- TGI [9]: > 100 µM
- TGI [10]: > 100 µM
- TGI [11]: > 100 µM
- TGI [12]: > 100 µM
- TGI [13]: > 100 µM
- TGI [14]: > 100 µM
- TGI [15]: > 100 µM
- TGI [17]: > 100 µM
- TGI [18]: > 100 µM
- TGI [19]: > 100 µM
- TGI [20]: > 100 µM
- TGI [21]: > 100 µM
- TGI [22]: > 100 µM
- TGI [23]: > 100 µM
- TGI [24]: > 100 µM
- TGI [25]: > 100 µM
- TGI [26]: > 100 µM
- TGI [27]: > 100 µM
- TGI [28]: > 100 µM
- TGI [29]: > 100 µM
- TGI [31]: > 100 µM
- TGI [32]: > 100 µM
- TGI [33]: > 100 µM
- TGI [54]: > 100 µM
- TGI [34]: > 100 µM
- TGI [58]: > 100 µM
- TGI [35]: > 100 µM
- TGI [36]: > 100 µM
- TGI [37]: > 100 µM
- TGI [39]: > 100 µM
- TGI [41]: > 100 µM
- TGI [42]: > 100 µM
- TGI [43]: > 100 µM
- TGI [44]: > 100 µM
- TGI [45]: > 100 µM
- TGI [46]: > 100 µM
- TGI [47]: > 100 µM
- TGI [55]: > 100 µM
- TGI [56]: > 100 µM
- TGI [49]: > 100 µM
- TGI [51]: > 100 µM
